Test results reported in US20250000881A1, “TREATMENT OF TREATMENT RESISTANT […] PSILOCYBIN” (COMPASS […], priority 2021, published 2025).
Values after ≈ are worked out from the molar mass of the structure shown. Values joined by “and” are separate entries in the source; they are usually repeats but may differ in a detail not shown here. Identical values can stand only once.

Tests used:
adult subjects with TRD [1] = assay: Phase 2b trial in TRD: participants starting new treatment for depression; format: in vivo, human
Experimental: All subjects were asked to remain off their antidepressant medications for at least 3 weeks following the psilocybin session until the primary endpoint assessment, or longer. Rescue medications were allowed and described in the Rescue Medications section below. Subjects who restarted their antidepressant medications during the first 3 weeks after the psilocybin treatment administration were assessed for reasons of resuming their medications and followed until 12 weeks post-psilocybin administration.

adult subjects with TRD [2] = assay: Phase 2b trial in TRD: QIDS-SR-16 self-reported depression; format: in vivo, human; conditions: 25 mg vs 1 mg group, week 3
Experimental: (§1) Other objectives were to evaluate the effects of psilocybin on quality of life and wellbeing, functioning and associated disability, cognitive function, and anxiety compared to 1 mg psilocybin on: • (a) Quality of life in subject EuroQoL (EQ)-5 dimension-3 level scale (EQ-5D-3L) score change from Baseline to week 3. This will also be assessed at week 12. This assessment was not mandatory. • (b) Quality of life in caregiver EQ-5D-3L score change from Baseline to week 3. This was assessed at week 12. • (c) Functioning and associated disability in the Sheehan Disability Scale (SDS) score change from Baseline to week 3. This was also assessed at week 12. • (d) Cognitive function as measured by the Digit Symbol Substitution Test (DSST) score change from baseline to week 3. This was assessed at day 1 and week 12. • (e) Level of anxiety as measured using the change in Generalised Anxiety Disorder 7 item Scale (GAD-7) total score change from baseline to week 3. This was assessed at week 12. • (f) Subject determined level of depression as measured using the change in Quick Inventory of Depressive Symptomatology Self-Rated (QIDS-SR-16) total score from Baseline to week 3. […] This was assessed at week 12. • (h) To evaluate the impact of different psilocybin doses on real life functional activity estimated from passive data streams collected on a mobile app on subjects' mobile phones. […]

adult subjects with TRD [3] = assay: Phase 2b trial in TRD: EQ-5D-3L and EuroQoL Visual Analogue Scale quality of life; format: in vivo, human; conditions: 25 mg vs 1 mg, week 3
Experimental: as §1

[4] = test system: participants with TRD from Example 2; assay: Long term follow-up study: time to any depressive event (KM quartiles); format: in vivo, human
Experimental: (§2) The following example is a long term follow up of study of a sustained responder population from Example 2. 58 participants from Example 2 were selected for a long term 52 week follow up study. Of the 58 patients, 22 received a 25 mg dose of psilocybin, 19 received a 10 mg dose of psilocybin, and 17 received a 1 mg dose of psilocybin. […] None of the patients in this study received treatment for depression before their week 12 MADRS visit in Example 2. Patients were analyzed for a change in MADRS total score from Baseline to 12, 16, 20, 24, 28, 40, and 52 weeks.
The primary endpoint of this study was to determine the median time to a depressive event after administration of psilocybin. The depressive event includes: • Initiation of new antidepressant treatment (first new antidepressant treatment in time period only); • Hospitalization due to depression/suicidality; • Suicide attempt, prevention of an imminent suicide attempt, or completed suicide; • Increased suicidality measured by worsening on MADRS item 10; • Active suicidal ideation measured by the C-SSRS; • MADRS worsening; and • Discontinuation for adverse event or lack of efficacy.

[5] = test system: participants with TRD from Example 2; assay: Long term follow-up study: MADRS responders, remitters, sustained responders to week 52; format: in vivo, human
Experimental: as §2
The secondary endpoint of this study was to determine the change in MADRS total score from Baseline to 12, 16, 20, 24, 28, 40, and 52 weeks post treatment. […] Note, “n*” changed to account for subjects that dropped out the long term study.

## CN(C)CCc1c[nH]c2cccc(OP(=O)(O)O)c12 [COMP360, psilocybin]
Adult subjects with TRD [1]; 1 mg (N = 79), Day 2
  Participants started new treatment for depression: 0 n
Adult subjects with TRD [1]; 10 mg (N = 75), Day 2
  Participants started new treatment for depression: 0 n
Adult subjects with TRD [1]; 25 mg (N = 79), Day 2
  Participants started new treatment for depression: 0 n
Adult subjects with TRD [1]; 25 mg (N = 79), Week 1
  Participants started new treatment for depression: 0 n
Adult subjects with TRD [1]; Overall (N = 233), Day 2
  Participants started new treatment for depression: 0 n
Adult subjects with TRD [2]
  QIDS-SR-16 total score, least squares mean treatment difference (95% confidence intervals): −2.78 (−4.62, −0.95)
Adult subjects with TRD [3]
  EQ-5D-3L total score, least squares mean treatment difference: 0.06
  EuroQoL Visual Analogue Scale treatment difference: 6.77
[4]; 1 mg (N = 17)
  Time to any depressive event, KM Q1, estimate (95% CI): 6.0 (2.0, 14.0) days
  Time to any depressive event, KM Q2 (median), estimate (95% CI): 21 days and 21.0 (3.0, 78.0) days
  Time to any depressive event, KM Q3, estimate (95% CI): 78.0 (21.0, —) days
[4]; 10 mg (N = 19)
  Time to any depressive event, KM Q1, estimate (95% CI): 19.0 (2.0, 41.0) days
  Time to any depressive event, KM Q2 (median), estimate (95% CI): 43 days and 43.0 (19.0, 142.0) days
[4]; 25 mg (N = 22)
  Time to any depressive event, KM Q1, estimate (95% CI): 24.0 (2.0, 132.0) days
[5]; 1 mg (N = 17), Week 3
  MADRS remitters (MADRS total score≤10): 0/11
[5]; 1 mg (N = 17), Week 9
  MADRS remitters (MADRS total score≤10): 0/8
[5]; 1 mg (N = 17), Week 12
  MADRS relaxed sustained responders: 0/7
  MADRS remitters (MADRS total score≤10): 0/7
  MADRS sustained responders (response at Week 3 and all subsequent visits): 0/7
[5]; 1 mg (N = 17), Week 16
  MADRS relaxed sustained responders: 0/5
  MADRS remitters (MADRS total score≤10): 0/5
  MADRS responders (≥50% reduction from baseline in MADRS total score): 0/5
  MADRS sustained responders (response at Week 3 and all subsequent visits): 0/5
[5]; 1 mg (N = 17), Week 20
  MADRS relaxed sustained responders: 0/4
  MADRS remitters (MADRS total score≤10): 0/4
  MADRS sustained responders (response at Week 3 and all subsequent visits): 0/4
[5]; 1 mg (N = 17), Week 24
  MADRS sustained responders (response at Week 3 and all subsequent visits): 0/4
[5]; 1 mg (N = 17), Week 28
  MADRS relaxed sustained responders: 0/4
  MADRS remitters (MADRS total score≤10): 0/4
  MADRS sustained responders (response at Week 3 and all subsequent visits): 0/4
[5]; 1 mg (N = 17), Week 40
  MADRS relaxed sustained responders: 0/4
  MADRS sustained responders (response at Week 3 and all subsequent visits): 0/4
[5]; 1 mg (N = 17), Week 52
  MADRS relaxed sustained responders: 0/4
  MADRS remitters (MADRS total score≤10): 0/4
  MADRS responders (≥50% reduction from baseline in MADRS total score): 0/4
  MADRS sustained responders (response at Week 3 and all subsequent visits): 0/4
[5]; 10 mg (N = 19), Week 16
  MADRS remitters (MADRS total score≤10): 0/5
[5]; 10 mg (N = 19), Week 20
  MADRS relaxed sustained responders: 0/3
  MADRS sustained responders (response at Week 3 and all subsequent visits): 0/3
[5]; 10 mg (N = 19), Week 24
  MADRS sustained responders (response at Week 3 and all subsequent visits): 0/3
[5]; 10 mg (N = 19), Week 28
  MADRS sustained responders (response at Week 3 and all subsequent visits): 0/4
[5]; 10 mg (N = 19), Week 40
  MADRS sustained responders (response at Week 3 and all subsequent visits): 0/5
[5]; 10 mg (N = 19), Week 52
  MADRS sustained responders (response at Week 3 and all subsequent visits): 0/5
[5]; 25 mg (N = 22), Week 40
  MADRS relaxed sustained responders: 0/6
  MADRS remitters (MADRS total score≤10): 0/6
  MADRS sustained responders (response at Week 3 and all subsequent visits): 0/6
[5]; 25 mg (N = 22), Week 52
  MADRS remitters (MADRS total score≤10): 0/6
  MADRS sustained responders (response at Week 3 and all subsequent visits): 0/6
Solubility in water
  solubility: ~15 mg/mL (≈ 52.8 mM)
